Experimental data from patent US20090047365A1, “Novel Concomitant Use of Sulfonamide Compound with Anti-Cancer Agent” (Eisai R & D Management Co., Ltd., priority 2005, published 2009).

What was measured:
[1] = system: human pancreas cancer cell line KP-1; experiment: subcutaneous transplant model of human pancreas cancer cell line (KP-1), E7820 and Gemcitabine; details: KP-1 nude mouse; E7820 50 mg/kg twice a day, three weeks, oral; Gemcitabine 200 mg/kg once in three days x4, intravenous; control 14.8 ± 2.28
Experimental: Human pancreas cancer cell line KP-1 (obtained from the National Kyushu Cancer Center) was cultured in RPMI1640 (containing 10% FBS) in a 5% carbon dioxide incubator at 37° C. to about 80% confluence, and the cells were collected with trypsin-EDTA. Using a phosphate buffer, 1×10^8 cells/mL suspension was prepared, and 0.11 mL each of the resulting cell suspension was subcutaneously transplanted to a nude mouse at the side of its body. […] The major and minor axes of tumors were measured with Digimatic caliper (Mitsutoyo), and tumor volumes and relative tumor volumes were calculated according to the following formulae.
Tumor Volume TV=Major axis of tumor(mm)×(Minor axis of tumor)^2(mm^2)/2
(§1) Relative Tumor Volume RTV=Tumor volume on measurement day/Tumor volume on the first administration day

[2] = system: human colon cancer cell line Colo320DM; experiment: subcutaneous transplant model of human colon cancer cell line (Colo320DM), E7820 and Oxaliplatin; type: in vivo; details: Colo320DM nude mouse; E7820 50 mg/kg twice a day, two weeks, oral; Oxaliplatin 10 mg/kg once in four days x3, intravenous; control 11.99 ± 1.35
[3] = system: human colon cancer cell line Colo320DM; experiment: subcutaneous transplant model of human colon cancer cell line (Colo320DM), E7820 and CPT-11; details: Colo320DM nude mouse; E7820 50 mg/kg twice a day, two weeks, oral; CPT-11 100 mg/kg once in four days x3, intravenous; control 11.99 ± 1.35
Experimental: Human colon cancer cell line Colo320DM (purchased from Dainippon Pharmaceutical) was cultured in RPMI1640 (containing 10% FBS) in a 5% carbon dioxide incubator at 37° C. to about 80% confluence, and the cells were collected with trypsin-EDTA. Using a phosphate buffer containing 50% matrigel, 7.5×10^7 cells/mL suspension was prepared, and 0.1 mL each of the resulting cell suspension was subcutaneously transplanted to a nude mouse at the side of its body. […] The major and minor axes of tumors were measured with Digimatic caliper (Mitsutoyo), and tumor volumes and relative tumor volumes were calculated according to the following formulae.
Tumor Volume TV=Major axis of tumor(mm)×(minor axis of tumor)^2(mm^2)/2
as §1

[4] = system: DNA-topoisomerase II mRNA; experiment: quantification of DNA-topoisomerase II mRNA by RT-PCR; type: cell-based, human; details: HUVEC, 1 μM, six hours; untreated group 4.4 μg/ml
Experimental: 2×10^6 of human umbilical vein endothelial cells were seeded in a 25 cm^2 cell culture bottle and cultured in a CO2 incubator at 37° C. using a EGM-2 medium (Sanko Junyaku) overnight. On the following day, E7820 was added to give 1 μM. Six hours later, RNA was prepared from the cells. Specifically, the medium was removed from the cells. The cells were added with and dissolved in 3 ml of ISOGEN (Wako Pure Chemical Industries), added with an equal volume of CHCl3 and agitated. Then, the water phase was extracted. Half the amount of the water phase of isopropanol was added, left to stand for 5 minutes and centrifuged to collect the precipitate. The precipitate was washed with 70% ethanol, added with and dissolved in sterile water and absorbance at 260 nm was determined with a spectrophotometer to quantify the RNA amount.
Subsequently, TaqMan Gold RT-PCR kit (Applied Biosystems) was used to perform RT-PCR reaction. Specifically, 0.1 μg of RNA was added to 50 μl of the reaction solution, and subjected to reactions at 25° C. for 10 minutes, 48° C. for 30 minutes and 95° C. for 5 minutes to prepare cDNA. Then, a primer for determining DNA-topoisomerase II mRNA (ABI Taqman probe Hs00172214 ml) was used for PCR reaction and then ABI7700 (Applied Biosystems) was used for quantifying RNA amount.

HCT116 cells = experiment: DNA microarray analysis (Example 8), correlation coefficients and hierarchical cluster analysis; type: cell-based, human; details: 24 hours treatment at twice the 50% growth inhibitory concentration, similarity among the compounds named together
Experimental: HCT116 cells were cultured in an RPMI-1640 medium supplemented with 10% fetal bovine serum, 100 units/ml penicillin and 100 μg/ml streptomycin. The following cultivation and compound treatment were carried out in an incubator at 5% CO2 and 37° C. HCT116 cells were seeded in 10 cm-diameter cell culture dishes at 2.0×10^6 cells/dish, cultured for 24 hours and subjected to the following compound treatment.
In this example, changes in the gene expression of HCT116 cells upon treatments with 12 compounds, i.e., E7820 (0.16 μM), E7070 (0.26 μM), LY186641 (59 μM), LY295501 (24 μM), LY-573636 (9.6 μM), CQS (4.0 μM), MST16 (100 μM), etoposide (3.6 μM), ethoxzolamide (410 μM), capsaicin (280 μM), trichostatin A (0.16 μM) and kenpaullone (7.1 μM) were examined.
The concentration of each compound used for the treatment was set to twice the 50% growth inhibitory concentration of each compound to the HCT116 cells (based on three days of antiproliferatrive activity using MTT). The cells were collected 24 hours after the treatment at the concentration indicated in parentheses following each compound name above. Similarly, cells cultured for 24 hours without the addition of any compound were also collected.
Total RNA extraction from the collected cells was performed using TRIZOL reagent (Invitrogen) according to the attached instruction.
Gene expression analysis using a DNA microarray was carried out in the same manner as “(2) Analysis of gene expression using DNA microarray” in Example 7.
This example was conducted for each sample in duplicate (for the convenience of the experiment, samples were given branch numbers like control-1, control-2, E7070-1, E7070-2 and so on for distinction). Then, GeneChip (Affymetrix) system (Human Focus array) was used for analyzing changes in the gene expression induced by each compound.
Twenty-six “.cel” files obtained in this example (13 samples (a control+12 compounds)×2) were subjected to RMA method (robust multi-array average method (Biostatistics (2003), 4, 249-264)) for normal distribution at probe level, and then the logarithm value of the signal intensity at gene level was calculated. Next, the logarithm value of the signal intensity of the untreated group (control-1) was subtracted from the logarithm value of the signal intensity of the compound-treated group for each gene to obtain the logarithm value of the signal ratio of the compound-treated group to control-1. Then, cosine correlation coefficients were calculated as correlation coefficients between the experiments (FIG. 5). Based on these correlation coefficients, hierarchical cluster analysis was performed according to UPGMA method (Unweighted Pair Group Method with Arithmetic mean method) (FIG. 6). Control-2 was also subjected to similar calculation (FIGS. 7 and 8). The softwares used were R 2.0.1 (http://www.r-project.org/) and affy package 1.5.8 (http://www.bioconductor.org).

## Cc1ccc(NS(=O)(=O)c2cccc(C#N)c2)c2[nH]cc(C#N)c12 [E7820, N-(3-cyano-4-methyl-1H-indole-7-yl)-3-cyanobenzenesulfonamide]
[1]
  Relative tumor volume on Day 22 Average ± standard deviation: 8.81 ± 2.57
[2]
  Relative tumor volume on Day 15 Average ± standard deviation: 7.05 ± 1.15
[3]
  Relative tumor volume on Day 15 Average ± standard deviation: 7.05 ± 1.15
[4]
  amount of DNA-topoisomerase II mRNA: 1.6 µg/mL
HCT116 cells
  changes in gene expression (correlation coefficients, hierarchical cluster analysis): very similar genetic alterations
